Patent US20260216109A1, “TREATMENT OF SKIN DISORDERS WITH SHORT CHAIN FATTY ACIDS” (Temple University-Of The Commonwealth System of Higher …, priority 2023, published 2026)

How the values were obtained:
[1] = Observations of animal well-being in IMQ-induced psoriasis model mice; format: in vivo, mouse
MIP-3α = assay: Multiplex (MSD V-PLEX) cytokine release, InflammaSkin: MIP-3α; format: cell-based, human; conditions: Example 2; 1 μM Otezla systemic; compared to untreated InflammaSkin
Procedure: A total of 16 biopsies of 15 mm diameter were produced from a single donor. Two NativeSkin® models with 12/15 mm silicon rings were produced from the biopsies according to standard procedures in place, and cultured under cell culture conditions (37° C., 5% CO2, max. humidity) for 7 days with 2 mL of standard NativeSkin® medium renewed every day. Fourteen PSO-InflammaSkin® models with 12/15 mm silicon rings were produced by inducing in situ activation and Th17/Th1 polarization of skin resident T cells with a proprietary cocktail, and cultured under cell culture conditions (37° C., 5% CO2, max. humidity) for 7 days with 2 mL of PSO-InflammaSkin® culture medium renewed every day. […]
(§1) Human pro-inflammatory cytokines released in the supernatant were quantified using the V-PLEX Human IL-17A Kit (MesoScale Discovery, reference: K151RFD-1) and V-PLEX Human custom Pro-inflammatory. […]
(§2) Samples were diluted four times for plate 2 and two times for plate 1. Samples and standards were assessed in duplicate. Plates were read on MesoScale Discovery Quickpleax SQ 120 plate reader and values expressed in pg/mL.
(§3) A statistical analysis was performed. […] First, the distribution's normality of the two compared group was assessed. […] If the two distributions were normal, the homogeneity of variances was assessed using a Fisher test on the variances. […]

K16 = assay: Anti-K16 immunostaining of InflammaSkin models; format: cell-based, human; conditions: Example 1; Day 7; Day 1-6: 1 μM Otezla or SCFA (45 μg/mL Ca-propionate + 1 mM Ca-/Mg-butyrate) systemic, 0.05% Betamethasone topical
Procedure: (§4) A total of 16 biopsies of 15 mm diameter were produced from a single donor. Two NativeSkin® models with 12/15 mm silicon rings were produced from the biopsies according to standard procedures in place, and cultured under cell culture conditions (37° C., 5% CO2, max. humidity) for 7 days with 2 mL of standard NativeSkin® medium renewed every day. Fourteen PSO-InflammaSkin® models with 12/15 mm silicon rings were produced by inducing in situ activation and Th17/Th1 polarization of skin resident T cells with a proprietary cocktail, and cultured under cell culture conditions (37° C., 5% CO2, max. humidity) for 7 days with 2 mL of PSO-InflammaSkin® culture medium renewed every day.
(§5) From Day 1 to Day 6, models were systemically treated with 1 μM Otezla or Short Chain Fatty Acids (SCFAs), or topically treated with positive control 0.05% Betamethasone
(§6) In these experiments, the SCFAs administered were 45 μg/mL of Ca-propionate and 1 mM mixture of salts (Ca-butyrate and Mg-butyrate).
At Day 7, supernatants were collected and stored at −80° C. and skin models of all conditions were carefully unmolded. Skin biopsies were re-punched to eliminate the area under the silicon ring, fixed in 10% buffered formalin and processed for paraffin wax embedding. […]

TNF-α [2] = assay: ELISA analysis of TNF-α, InflammaSkin; format: cell-based, human; conditions: Example 2; Otezla-treated InflammaSkin; FIG. 20
IL-17A = assay: Multiplex (MSD V-PLEX) cytokine release, InflammaSkin: IL-17A; format: cell-based, human; conditions: Day 7 supernatant, 0.05% Betamethasone topical, vs untreated InflammaSkin
Procedure: as §4, §5, §6
At Day 7, supernatants were collected and stored at −80° C. and skin models of all conditions were carefully unmolded. […]
Human pro-inflammatory cytokines released in the supernatant were quantified using the V-PLEX Human IL-17A Kit (MesoScale Discovery, reference: K151RFD-1) and V-PLEX Human TNFα Kit (MesoScale Discovery, reference: K151QWD-1). […]
as §1, §2, §3

InflammaSkin® models = assay: Hematoxylin & Eosin (H&E) staining of InflammaSkin models (skin structure, integrity, viability); format: cell-based, human; conditions: Example 1; Day 7; Day 1-6: 1 μM Otezla or SCFA (45 μg/mL Ca-propionate + 1 mM Ca-/Mg-butyrate) systemic, 0.05% Betamethasone topical; vs untreated InflammaSkin
Procedure: as §4, §5
In these experiments, the SCFAs administered were 45 μg/mL of Ca-propionate and 1 mM mixture of salts (Ca-butyrate and Mg-butyrate). […]
Skin structure and integrity and viability were evaluated using Hematoxylin & Eosin (H&E) staining following treatment with Betamethasone, […] Otezla® (Apremilast), or SCFAs comprising butyric acid and propionic acid. […] Therefore, the donor sample was determined to remain viable over the course of the culture in the absence of inflammation/T-cell activation.

TNF-α [3] = assay: Multiplex (MSD V-PLEX) cytokine release, InflammaSkin: TNF-α; format: cell-based, human
Procedure: as §4, §5, §6
At Day 7, supernatants were collected and stored at −80° C. and skin models of all conditions were carefully unmolded. Skin biopsies were re-punched to eliminate the area under the silicon ring, fixed in 10% buffered formalin and processed for paraffin wax embedding.
Human pro-inflammatory cytokines released in the supernatant were quantified using the V-PLEX Human IL-17A Kit (MesoScale Discovery, reference: K151RFD-1) and V-PLEX Human TNFα Kit (MesoScale Discovery, reference: K151QWD-1). Values are expressed in pg/mL. For each condition, single values, mean and SEM were plotted using GraphPad Prism. Statistical analysis was performed using a One Way ANOVA test.
PSO-InflammaSkin® models were cultured and treated as described in Example 1. In these experiments, the SCFAs administered were 45 μg/mL of Ca-propionate and 1 mM mixture of salts (Ca-butyrate and Mg-butyrate).
Human pro-inflammatory cytokines released in the supernatant were quantified using the V-PLEX Human IL-17A Kit (MesoScale Discovery, reference: K151RFD-1) and V-PLEX Human custom Pro-inflammatory. Plate 1 comprised Proinflammatory Panel 1 (human) kit reference K15049 (panel IFN-γ and TNF-α). Plate 2 comprised TH17 Panel 1 (human) kit reference K15049 (panel IL-17A Gen B, IL-21, IL-22, IL-23, IL-27, IL-31, MIP-3α).
as §2
A statistical analysis was performed. Each condition was compared to the untreated InflammaSkin® condition. First, the distribution's normality of the two compared group was assessed. […] If the two distributions were normal, the homogeneity of variances was assessed using a Fisher test on the variances. […]

[4] = Body weight in IMQ-induced psoriasis model mice; format: in vivo, mouse
Procedure: Body weight was determined daily in all mice over the whole period of each study. Oral treatment with either Apremilast (25 mg/kg BID) or SFA002 (fixed dose BID) started with the disease induction on day 0. Etanercept (10 mg/kg Q3D s.c.) served as a technical control. Healthy control and IMQ control group received no placebo treatment.

In the case of `CCOc1cc([C@@H](CS(C)(=O)=O)N2C(=O)c3cccc(NC(C)=O)c3C2=O)ccc1OC` [Otezla, Apremilast], the “observations of animal well-being” value ([1]; Example 4, SCFA fixed dose BID (120 + 2,146 mg/kg/day), Apremilast 50 mg/kg/day, oral, study duration) is reported as “reduced activity, ruffled coat and were slightly hunched”, the “observations of animal well-being” value ([1]; Example 7, SCFA (120 + 1,100 mg/kg/day), Apremilast 2.5, 5, 7 mg/kg BID, or combinations, study duration) is reported as “well tolerated” and the “observations of animal well-being” value ([1]; Example 8 (written in present tense), SCFA, Apremilast 2.5, 5, 7 mg/kg BID, or combinations) is reported as “well tolerated”. For the same compound, the “observations of animal well-being” value ([1]; Example 9, SCFA fixed dose, Apremilast 25 mg/kg BID, or combination, study duration) was “well tolerated”, the “observations of animal well-being” value ([1]; Example 10 (written in present tense), SCFA, Apremilast 25 mg/kg BID, or combination) was “well tolerated” and the “observations of animal well-being” value ([1]; Example 12, SCFA fixed dose, Apremilast 12 or 25 mg/kg BID, or combinations, study duration) was “well tolerated”. For the same compound, the “increase of secretion of MIP-3a” value (MIP-3α) was “about 50%”, the “K16 expression in the epidermis” value (K16) was “decreased the expression of K16 in the epidermis” and the TNFα level (by ELISA) (TNF-α [2]) was ~13 pg/mL. The “IL-17A levels decreased by” value (IL-17A; Example 1, 1 μM Otezla or SCFA (45 μg/mL Ca-propionate + 1 mM Ca-/Mg-butyrate) systemic) was “about 95%”, the IL-17A secretion (IL-17A; Example 2, 1 μM Otezla or SCFA systemic) was “significantly reduced” and the “H&E: incidence of pyknosis, vacuolization and epidermal/dermal separation” value (InflammaSkin® models) was “reduce the incidence of pyknosis, vacuolization and epidermal/dermal separation”. The “increase of the release of TNF-α” value (TNF-α [3]; Example 1, Day 7 supernatant, 1 μM Otezla systemic, vs untreated InflammaSkin) was ~2 fold, the TNFα secretion (TNF-α [3]; Example 2, Day 7 supernatant, 1 μM Otezla or SCFA systemic, 0.05% Betamethasone topical, vs untreated InflammaSkin) was “significantly increased” and the “TNFα level (by MSD)” value (TNF-α [3]; Example 2, Otezla-treated InflammaSkin (untreated about 1 μg/mL)) was “about 2 μg/mL”. For the same compound, the body weight loss ([4]; Example 4, Apremilast 25 mg/kg BID, SCFA fixed dose BID (120 + 2,146 mg/kg/day), oral) was “no effect on body weight loss”, the body weight loss ([4]; Example 7, Apremilast 2.5, 5, 7 mg/kg BID, SCFA (120 + 1,100 mg/kg/day), alone or in combination, vs vehicle-treated IMQ disease controls) was “no positive influence on body weight loss” and the body weight loss ([4]; Example 9, Apremilast 25 mg/kg BID, SCFA fixed dose, alone or in combination, vs vehicle-treated IMQ disease controls) was “no positive influence on body weight loss”. For the same compound, the body weight loss ([4]; Example 12, Apremilast 12 or 25 mg/kg BID, fixed dose SCFA, alone or in combination, vs vehicle-treated IMQ disease controls) was “no positive influence on body weight loss”.
